Square brackets hold non-standard residues; d marks the D form. Ends that are not written are not given here.
How the values were obtained:
[1] = test system: SK-LU-1 lung cancer cells; assay type: cell-based, human; conditions: for effect of antagonist on inhibition of serum-stimulated growth by Ang-(1-7): SK-LU-1, antagonist pretreatment (1 μM); for effect on serum-stimulated ^3H-thymidine incorporation: SK-LU-1, peptide at 1 or 100 nM
Method: Cells were grown to subconfluence in either 24-well cluster plates or 100 mm dishes and made quiescent by treatment for 48 h with serum-depleted growth media, prior to the experiments outlined below to measure cell growth (^3H-thymidine incorporation), cell signaling or apoptosis.
Subsequently, the cell monolayer was washed with cold phosphate-buffered saline (PBS; 50 mM NaPO4, 120 mM NaCl, pH=7.2). The adherent cells were precipitated with cold 10% TCA (4° C. for 30 min) and dissolved in 0.2% SDS in 0.1 N NaOH.
During an additional 4 h, cell monolayers were pulsed with ^3H-thymidine (0.25 μCi/well) and harvested.

VSMCs = conditions: pretreatment; U.S. Pat. No. 7,375,073; cited from earlier work
AT1 angiotensin receptor = conditions: literature; cited from earlier work
AT2 angiotensin receptor = molecular target: T1, AT2 angiotensin receptor (Homo sapiens, UniProt P50052); conditions: literature; cited from earlier work
T1 sequence (P50052 1-363): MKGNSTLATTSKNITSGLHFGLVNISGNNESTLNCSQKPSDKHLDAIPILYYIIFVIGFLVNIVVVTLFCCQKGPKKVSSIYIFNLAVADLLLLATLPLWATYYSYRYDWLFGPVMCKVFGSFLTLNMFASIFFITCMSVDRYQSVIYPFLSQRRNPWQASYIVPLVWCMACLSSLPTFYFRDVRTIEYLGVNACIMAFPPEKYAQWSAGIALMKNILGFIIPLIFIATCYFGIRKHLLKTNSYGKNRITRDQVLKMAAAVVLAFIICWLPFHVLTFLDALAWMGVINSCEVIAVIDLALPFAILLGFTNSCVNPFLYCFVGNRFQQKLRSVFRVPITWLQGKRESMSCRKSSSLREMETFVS

EA.hy.926 cells = assay: Tube formation of endothelial cells in Matrigel; assay type: cell-based, human; conditions: selective Ang-(1-7) receptor antagonist
Method: These cells are a transformed human endothelial cell line derived from umbilical vein endothelial cells. They retain their endothelial phenotype and were previously used to study angiogenesis.
After a 16 h incubation period to allow tube formation, cultures were photographed and branch points were counted, to quantify tube formation.

Chain of AT1 angiotensin receptor (P30556 whole entry): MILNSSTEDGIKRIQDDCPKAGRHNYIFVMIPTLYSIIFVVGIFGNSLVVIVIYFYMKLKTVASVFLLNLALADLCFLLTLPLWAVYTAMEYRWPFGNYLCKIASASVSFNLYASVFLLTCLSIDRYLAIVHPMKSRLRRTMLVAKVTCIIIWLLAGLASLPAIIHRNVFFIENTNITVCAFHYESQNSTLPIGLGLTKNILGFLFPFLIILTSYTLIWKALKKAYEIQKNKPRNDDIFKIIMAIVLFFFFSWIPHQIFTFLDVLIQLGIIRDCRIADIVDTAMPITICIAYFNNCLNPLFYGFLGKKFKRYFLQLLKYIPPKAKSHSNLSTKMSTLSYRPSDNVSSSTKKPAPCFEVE

Compound: CCCCc1nc(Cl)c(CO)n1Cc1ccc(-c2ccccc2-c2nn[nH]n2)cc1 [Losartan]
- effect of antagonist on inhibition of serum-stimulated growth by Ang-(1-7) [1]: neither AT1 nor AT2 angiotensin receptor antagonists Losartan and PD123177, respectively, were effective

Compound: Cc1cc(Cn2cnc3c2CC(C(=O)O)N(C(=O)C(c2ccccc2)c2ccccc2)C3)ccc1N (stereo not drawn) [PD123177]
- effect of antagonist on inhibition of serum-stimulated growth by Ang-(1-7) [1]: neither AT1 nor AT2 angiotensin receptor antagonists Losartan and PD123177, respectively, were effective

Compound: CCN(CC)CC.Nc1ncnc2c1ncn2[C@@H]1O[C@@H]2COP(O)(=S)O[C@H]2[C@H]1O (stereo partly drawn) [Rp-cAMPS, Rp-adenosine-3′,5′-cyclic monphospho-phorothioate triethylamine salt]
- effect on the reduction in serum-stimulated ^3H-thymidine incorporation by Ang-(1-7) or carbacyclin (VSMCs): completely blocked

Compound: Arg-Val-Tyr-Ile-His-Pro-Phe (RVYIHPF; listed as Homo sapiens) [Ang-(2-8)]
- effect on serum-stimulated ^3H-thymidine incorporation [1]: ineffective

Compound: Asp-Arg-Val-Tyr-Ile-His-Pro-Phe [Ang II]
- effect on serum-stimulated ^3H-thymidine incorporation [1]: ineffective

Compound: DRVYIHPFHL [Ang I]
- effect on serum-stimulated ^3H-thymidine incorporation [1]: ineffective

Compound: Val-Tyr-Ile-His-Pro (VYIHP; listed as Homo sapiens) [Ang-(3-7)]
- effect on serum-stimulated ^3H-thymidine incorporation [1]: ineffective

Compound: Val-Tyr-Ile-His-Pro-Phe (VYIHPF; listed as Homo sapiens) [Ang-(3-8)]
- effect on serum-stimulated ^3H-thymidine incorporation [1]: ineffective

Compound: [D-Ala^7]-Ang-(1-7): a modified form of Ang-(1-7), selective Ang-(1-7) antagonist (DRVYIH[dA]) [reference compound]
- competition at the AT1 receptor (AT1 angiotensin receptor): poor competitor
- effect of antagonist on inhibition of serum-stimulated growth by Ang-(1-7) [1]: blocked
- competition at the AT2 receptor (AT2 angiotensin receptor): poor competitor

Compound: [D-Pro^7]-Ang-(1-7): a selective Ang-(1-7) receptor antagonist [reference compound]
- effect on Ang-(1-7)-mediated reduction in tube formation (EA.hy.926 cells): prevented
